Laboratory results: patent US12611411B2, “Triple-agent therapy for cancer treatment” (CYTOMETRIC THERAPEUTICS, INC., priority 2021, dated 2026)

Tests used:
[1] = test system: live cancer cell cultures; assay: Cytometric testing of the patient's cancer cells; format: cell-based, human; conditions: for activity in cytometric testing: Example 14, incompletely resected pancreatic cancer; for sensitivity in cytometric testing: Example 18, ascites of metastatic carcinoma of the urachus
Text: Also disclosed are methods for in vitro testing a drug combination on cancer cells of a subject for cancer cell survival, wherein the drug combination comprises tamoxifen, gefitinib, and vinorelbine. The in vitro testing can comprise administering tamoxifen and gefitinib prior to, together with, and/or after, administering vinorelbine. The in vitro testing can comprise measuring the cancer cell survival. Suitable in vitro tests and methods for measuring the cancer cell survival include Differential Staining Cytotoxicity Assay (DiSC), MTT assay, ATP assay, and fluorescein diacetate assay (FDA). MTT assay is a colorimetric assay for assessing cell metabolic activity. Cellular enzymes are capable of reducing the tetrazolium dye MTT 3-(4,5-dimethylthiazol-2-yl)-2,5-diphenyltetrazolium bromide to its insoluble formazan, which has a purple color. ATP assays are procedures that can measure cell viability based on detection of ATP. All living cells, including bacteria, can be detected with ATP assays. Several detection methods can be used, such as colorimetric, fluorescent and bioluminescent. FDA uses a cell-permeant esterase substrate fluorescein diacetate that can serve as a viability probe and that measures both enzymatic activity, which is required to activate its fluorescence, and cell-membrane integrity, which is required for intracellular retention of their fluorescent product.
Use of tamoxifen at a high dose of 80 milligrams per meter squared (the typical dose in conventional cancer treatment is 20 mg daily) and high dose of gefitinib (187 milligrams per meter squared twice daily for 3 days—the typical dose in conventional cancer treatment is 250 mg daily) has been found in cytometric testing using live cancer cell cultures to transport vinorelbine into the cancer cell, producing extraordinary synergy in causing programmed apoptosis in the cancer cells (programmed cancer cell death) while sparing much of the normal tissues and giving dramatic clinical outcomes.

[2] = test system: squamous cell carcinoma of the breast; assay: TGV therapy case study, triple-negative squamous cell carcinoma of the breast (Example 11); format: in vivo, human; conditions: person, before TGV
Text: (§1) The 17 case studies represent patients with metastatic esophageal cancer, metastatic skin cancer, metastatic breast cancer, leptomeningeal breast cancer, metastatic prostate cancer, glioblastoma multiforme, lung cancer, bowel cancer, acute myelogenous leukemia, esthesioneuroblastoma, and urothelial cancer.

urothelial cancer = assay: TGV therapy case study, urothelial cancer (Example 17); format: in vivo, human; conditions: person, before TGV (MVAC together with radiation therapy)
Procedure: as §1
A person with regionally advanced bladder cancer was presented with urothelial cancer in the trigone of their bladder. The patient was treated with radiation therapy and with dose dense MVAC (M—methotrexate, V—vinblastine, A—doxorubicin, C—Cisplatin). […] The patient was then treated with gemcitabine and cisplatin to which they had no response. The patient then had the retroperitoneal lymph nodes radiated to a complete response. The patient was followed monthly and when recurrent disease was discovered in the lung and mediastinum, they were started on Padcev® (Enfortumab vedotin), to which they had no response. The patient was then offered TGV. […] The patient had neutropenia within five days and was admitted. […] It was concluded that the patient should not be given repeated chemotherapy until their bone marrow had recovered.

## O=c1[nH]cc(F)c(=O)[nH]1 [5-fluorouracil]
[1]
  activity in cytometric testing: no evidence of response

## COc1cccc2c1C(=O)c1c(O)c3c(c(O)c1C2=O)C[C@@](O)(C(=O)CO)C[C@@H]3O[C@H]1C[C@H](N)[C@H](O)[C@H](C)O1 [Adriamycin]
[2]
  response to prior chemotherapy: refractory

## O=P1(N(CCCl)CCCl)NCCCO1 (stereo not shown) [Cytoxan]
[2]
  response to prior chemotherapy: refractory

## CC(=O)O[C@@]12CO[C@@H]1C[C@H](O)[C@@]1(C)C(=O)[C@H](O)C3=C(C)[C@@H](OC(=O)[C@H](O)[C@@H](NC(=O)OC(C)(C)C)c4ccccc4)C[C@@](O)([C@@H](OC(=O)c4ccccc4)[C@H]21)C3(C)C [Taxotere]
[2]
  response to prior chemotherapy: refractory
[1]
  activity in cytometric testing: no evidence of response

## Nc1ccn([C@@H]2O[C@H](CO)[C@@H](O)C2(F)F)c(=O)n1 [gemcitabine]
[1]
  activity in cytometric testing: no evidence of response
  sensitivity in cytometric testing: hypersensitivity

## O=C1[O][Pt]2([NH][C@@H]3CCCC[C@H]3[NH]2)[O]C1=O [oxaliplatin]
[1]
  activity in cytometric testing: no evidence of response
  sensitivity in cytometric testing: hypersensitivity

## Enfortumab vedotin [Padcev®]
Urothelial cancer
  response to prior therapy: no response
